Experimental data: ChEMBL document CHEMBL3045090, “Synthesis, insecticidal activity, and structure-activity relationship of trifluoromethyl-containing phthalic acid diamide structures” (2010)
In brackets after ≈: the same amount, converted by molar mass.

Legend:
Type in all cases: functional
[1] = test system: Plutella xylostella; assay: Insecticidal activity against third-instar larval stage of Plutella xylostella (diamondback moth) in cabbage leaves assessed as mortality at 100 ug/ml treated for 10 secs before larva infestation measured after 3 days by dipping method; details: 72 h
[2] = test system: Plutella xylostella; assay: Insecticidal activity against third-instar larval stage of Plutella xylostella (diamondback moth) in cabbage leaves assessed as mortality at 100 ug/ml treated for 10 secs before larva infestation measured after 2 days by dipping method; details: 48 h
[3] = test system: Plutella xylostella; assay: Insecticidal activity against third-instar larval stage of Plutella xylostella (diamondback moth) in cabbage leaves assessed as mortality at 10 ug/ml treated for 10 secs before larva infestation measured after 3 days by dipping method; details: 72 h
[4] = test system: Plutella xylostella; assay: Insecticidal activity against third-instar larval stage of Plutella xylostella (diamondback moth) in cabbage leaves assessed as mortality at 10 ug/ml treated for 10 secs before larva infestation measured after 2 days by dipping method; details: 48 h
[5] = test system: Plutella xylostella; assay: Insecticidal activity against third-instar larval stage of Plutella xylostella (diamondback moth) in cabbage leaves assessed as mortality treated for 10 secs before larva infestation measured for 3 days by dipping method; details: 72 h
[6] = test system: Plutella xylostella; assay: Insecticidal activity against third-instar larval stage of Plutella xylostella (diamondback moth) in cabbage leaves assessed as mortality at 0.1 ug/ml treated for 10 secs before larva infestation measured for 3 days by dipping method; details: 72 h
[7] = test system: Plutella xylostella; assay: Insecticidal activity against third-instar larval stage of Plutella xylostella (diamondback moth) in cabbage leaves assessed as mortality at 0.5 ug/ml treated for 10 secs before larva infestation measured for 3 days by dipping method; details: 72 h
[8] = test system: Plutella xylostella; assay: Insecticidal activity against third-instar larval stage of Plutella xylostella (diamondback moth) in cabbage leaves assessed as mortality at 1 ug/ml treated for 10 secs before larva infestation measured for 3 days by dipping method; details: 72 h
[9] = test system: Plutella xylostella; assay: Insecticidal activity against third-instar larval stage of Plutella xylostella (diamondback moth) in cabbage leaves assessed as mortality at 5 ug/ml treated for 10 secs before larva infestation measured for 3 days by dipping method; details: 72 h

Row | Structure (SMILES) | mortality at 100 µg/mL [1] [%] | mortality at 100 µg/mL [2] [%] | mortality at 10 µg/mL [4] [%] | other results
1 | COc1ccc(NC(=O)c2cccc(I)c2C(=O)NC(C)(C)CSC)cc1C(F)(F)F | 50 | 5 | – | –
2 | COc1ccc(C(F)(F)F)cc1NC(=O)c1cccc(I)c1C(=O)NC(C)(C)CS(C)(=O)=O | 0 | 0 | – | –
3 | CC(C)(CS(C)(=O)=O)NC(=O)c1c(I)cccc1C(=O)Nc1cc(C(F)(F)F)ccc1F | 67 | 43 | – | –
4 | CC(C)(C)NC(=O)c1c(I)cccc1C(=O)Nc1cccc(C(F)(F)F)c1 | – | 100 | 50 | mortality at 10 µg/mL [3]: 100%
5 | CC(C)(C)NC(=O)c1c(I)cccc1C(=O)Nc1ccc(Cl)c(C(F)(F)F)c1 | 100 | 85 | 20 | mortality at 10 µg/mL [3]: 70%
6 | COc1ccc(NC(=O)c2cccc(I)c2C(=O)NC(C)(C)C)cc1C(F)(F)F | 5 | 0 | – | –
7 | CC(C)(C)NC(=O)c1c(I)cccc1C(=O)Nc1cc(F)cc(C(F)(F)F)c1 | 76 | 14 | – | –
8 | COc1cc(NC(=O)c2cccc(I)c2C(=O)NC(C)(C)C)cc(C(F)(F)F)c1 | 10 | 10 | – | –
9 | COc1ccc(C(F)(F)F)cc1NC(=O)c1cccc(I)c1C(=O)NC(C)(C)C | 0 | 0 | – | –
10 | CC(C)(C)NC(=O)c1c(I)cccc1C(=O)Nc1cc(C(F)(F)F)ccc1F | 62 | 57 | – | –
11 | CC(C)(CS(C)(=O)=O)NC(=O)c1c(I)cccc1C(=O)Nc1cccc(C(F)(F)F)c1 | – | 100 | 95 | mortality at 10 µg/mL [3]: 100%
12 | CC(C)(CS(C)(=O)=O)NC(=O)c1c(I)cccc1C(=O)Nc1ccc(Cl)c(C(F)(F)F)c1 | – | 100 | 100 | LC50 [5]: 0.98 µg/mL (≈ 1.63 µM); mortality at 0.1 µg/mL [6]: 4.8%; mortality at 0.5 µg/mL [7]: 29%; mortality at 1 µg/mL [8]: 52%; mortality at 5 µg/mL [9]: 100%
13 | CC(C)(CS(C)(=O)=O)NC(=O)c1c(I)cccc1C(=O)Nc1ccc(F)c(C(F)(F)F)c1 | – | 100 | 100 | mortality at 0.1 µg/mL [6]: 0%; mortality at 0.5 µg/mL [7]: 5%; mortality at 1 µg/mL [8]: 29%; mortality at 5 µg/mL [9]: 100%
14 | CC(C)(CS(C)(=O)=O)NC(=O)c1c(I)cccc1C(=O)Nc1ccc(C#N)c(C(F)(F)F)c1 | 100 | 57 | 0 | mortality at 10 µg/mL [3]: 50%
15 | COc1ccc(NC(=O)c2cccc(I)c2C(=O)NC(C)(C)CS(C)(=O)=O)cc1C(F)(F)F | 0 | 0 | – | –
16 | CC(C)(CS(C)(=O)=O)NC(=O)c1c(I)cccc1C(=O)Nc1cc(F)cc(C(F)(F)F)c1 | – | 100 | 57 | mortality at 10 µg/mL [3]: 91%
17 | CC(C)(CS(C)(=O)=O)NC(=O)c1c(I)cccc1C(=O)Nc1cc(C(F)(F)F)cc(C(F)(F)F)c1 | 90 | 40 | – | –
18 | COc1cc(NC(=O)c2cccc(I)c2C(=O)NC(C)(C)CS(C)(=O)=O)cc(C(F)(F)F)c1 | 0 | 0 | – | –

Row | Structure (SMILES) | mortality at 100 µg/mL [1] [%] | mortality at 100 µg/mL [2] [%] | mortality at 10 µg/mL [4] [%] | other results
19 | CSCC(C)(C)NC(=O)c1c(I)cccc1C(=O)Nc1cc(F)cc(C(F)(F)F)c1 | 100 | 90 | 43 | mortality at 10 µg/mL [3]: 100%
20 | CSCC(C)(C)NC(=O)c1c(I)cccc1C(=O)Nc1cc(C(F)(F)F)cc(C(F)(F)F)c1 | 85 | 71 | – | –
21 | COc1cc(NC(=O)c2cccc(I)c2C(=O)NC(C)(C)CSC)cc(C(F)(F)F)c1 | 5 | 0 | – | –
22 | COc1ccc(C(F)(F)F)cc1NC(=O)c1cccc(I)c1C(=O)NC(C)(C)CSC | 5 | 5 | – | –
23 | CSCC(C)(C)NC(=O)c1c(I)cccc1C(=O)Nc1cc(C(F)(F)F)ccc1F | 65 | 41 | – | –
24 | COCC(C)(C)NC(=O)c1c(I)cccc1C(=O)Nc1cccc(C(F)(F)F)c1 | 100 | 60 | 0 | mortality at 10 µg/mL [3]: 13%
25 | COCC(C)(C)NC(=O)c1c(I)cccc1C(=O)Nc1ccc(Cl)c(C(F)(F)F)c1 | 52 | 5 | – | –
26 | COCC(C)(C)NC(=O)c1c(I)cccc1C(=O)Nc1ccc(C#N)c(C(F)(F)F)c1 | 0 | 0 | – | –
27 | COCC(C)(C)NC(=O)c1c(I)cccc1C(=O)Nc1ccc(OC)c(C(F)(F)F)c1 | 0 | 0 | – | –
28 | COCC(C)(C)NC(=O)c1c(I)cccc1C(=O)Nc1cc(F)cc(C(F)(F)F)c1 | 19 | 10 | – | –
29 | COCC(C)(C)NC(=O)c1c(I)cccc1C(=O)Nc1cc(C(F)(F)F)cc(C(F)(F)F)c1 | 0 | 0 | – | –
30 | COCC(C)(C)NC(=O)c1c(I)cccc1C(=O)Nc1cc(C(F)(F)F)ccc1OC | 0 | 0 | – | –
31 | COCC(C)(C)NC(=O)c1c(I)cccc1C(=O)Nc1cc(C(F)(F)F)ccc1F | 12 | 6 | – | –
32 | CSCC(C)(C)NC(=O)c1c(I)cccc1C(=O)Nc1cccc(C(F)(F)F)c1 | – | 100 | 90 | mortality at 10 µg/mL [3]: 100%
33 | CSCC(C)(C)NC(=O)c1c(I)cccc1C(=O)Nc1ccc(Cl)c(C(F)(F)F)c1 | – | 100 | 100 | LC50 [5]: 0.42 µg/mL (≈ 0.736 µM); mortality at 0.1 µg/mL [6]: 0%; mortality at 0.5 µg/mL [7]: 57%; mortality at 1 µg/mL [8]: 62%; mortality at 5 µg/mL [9]: 100%
34 | CSCC(C)(C)NC(=O)c1c(I)cccc1C(=O)Nc1ccc(F)c(C(F)(F)F)c1 | – | 100 | 100 | mortality at 0.1 µg/mL [6]: 0%; mortality at 0.5 µg/mL [7]: 0%; mortality at 1 µg/mL [8]: 33%; mortality at 5 µg/mL [9]: 100%
35 | CSCC(C)(C)NC(=O)c1c(I)cccc1C(=O)Nc1ccc(C#N)c(C(F)(F)F)c1 | – | 100 | 6 | mortality at 10 µg/mL [3]: 42%
36 | Cc1cc(C(F)(C(F)(F)F)C(F)(F)F)ccc1NC(=O)c1cccc(I)c1C(=O)NC(C)(C)CS(C)(=O)=O [FLUBENDIAMIDE] | – | 100 | 67 | LC50 [5]: 0.15 µg/mL (≈ 0.22 µM); mortality at 0.1 µg/mL [6]: 20%; mortality at 0.5 µg/mL [7]: 90%; mortality at 1 µg/mL [8]: 95%; mortality at 5 µg/mL [9]: 100%; mortality at 10 µg/mL [3]: 100%
